Reference: patent US20240294551A1 (AMGEN INC., priority 2022, published 2024)
pIC50: −log10 of the molar value. Like-named read-outs stand apart in the source and are kept apart here.

Assays:
[1] = target: His-tagged KRAS G12D protein (Homo sapiens (Human), UniProt P01116, G12D); assay: KRAS G12D TR-FRET Assay; type: binding
Summary of the method: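 His-tagged KRAS G12D (diluted to 20 nM in pH 7.4 HEPES buffer with 10 mM MgCl2 and 10 μM GDP) was preincubated with titrated compound for 30 min at room temperature. Biotinylated KRPep-2d peptide (diluted to 20 nM) was then added for 1 h, and displacement was monitored by TR-FRET.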

[2] = target: GDP-bound KRAS protein (aa 1-169), containing both G12D and C118A amino acid substitutions (Homo sapiens (Human), UniProt P01116, C118A/G12D); assay: KRAS G12D Coupled Nucleotide Exchange Assay; type: biochemical
[3] = read-out: KRAS G12D Binding IC50
[4] = read-out: KRAS G12D Coupled Exchange IC50

Chain of GDP-bound KRAS protein (aa 1-169), containing both G12D and C118A amino acid substitutions (P01116 other isoform, or with tags, fused parts or gaps G12D/C118A): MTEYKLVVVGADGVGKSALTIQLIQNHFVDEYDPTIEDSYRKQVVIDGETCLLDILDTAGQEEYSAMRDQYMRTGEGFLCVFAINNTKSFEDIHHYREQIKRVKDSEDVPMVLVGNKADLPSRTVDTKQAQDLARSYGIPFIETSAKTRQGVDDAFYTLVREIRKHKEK
Chain of His-tagged KRAS G12D protein (P01116 other isoform, or with tags, fused parts or gaps G12D): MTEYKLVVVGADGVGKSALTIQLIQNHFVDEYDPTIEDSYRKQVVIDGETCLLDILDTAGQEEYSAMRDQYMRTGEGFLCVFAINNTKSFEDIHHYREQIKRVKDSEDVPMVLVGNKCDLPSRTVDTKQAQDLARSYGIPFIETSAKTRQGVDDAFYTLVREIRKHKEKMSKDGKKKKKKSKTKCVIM

pIC50 [1, 3]	pIC50 [2, 4]	pIC50 ([1]; TR-FRET, read-out: KRAS G12D Binding)	pIC50 ([2]; 2 hours compound pre-incubation, read-out: KRAS G12D Coupled Exchange)	SMILES
5.65	5.97			Fc1c2ncc3c(nc(OC[C@@]45CCCN4C[C@H](F)C5)nc13)N1CCCC[C@@H](C1)c1cnn(n1)CCCc1c(Cl)cc3[nH]ncc3c1-2 [Example 295, (1S)-10-chloro-33-fluoro-24-(((2R,7aS)-2-fluorotetrahydro-1H-pyrrolo[1,2-a]pyrrol-7a(5H)-yl)methoxy)-4,5,13,14,19,23,25,27,34-nonaazaheptacyclo[25.4.1.1~2,5~.1~18,22~.0~9,17~.0~12,16~.0~21,26~]tetratriaconta-2(34),3,9,11,14,16,18(33),19,21,23,25-undecaene]
5.90	6.08			O=C1N[C@@H]2CCCCN(C2)c2nc(OC[C@@]34CCCN3C[C@H](F)C4)nc3c(F)c(ncc23)-c2c3c(cc4[nH]ncc24)CC[C@@H]3CCO1 [Example 302, (16R,22R)-34-fluoro-8-(((2R,7aS)-2-fluorotetrahydro-1H-pyrrolo[1,2-a]pyrrol-7a(5H)-yl)methoxy)-19-oxa-3,7,9,11,17,28,29-heptaazaheptacyclo[20.9.1.1~2,6~.1~11,16~.0~5,10~.0~25,32~.0~27,31~]tetratriaconta-1(31),2(34),3,5,7,9,25(32),26,29-nonaen-18-one]
6.16	6.35			CN(C)CC1(COc2nc3c4cc(F)c(c(F)c4n2)-c2c(c(Cl)cc4[nH]ncc24)CCCOC(=O)O[C@@H]2COCCN3C2)CC1 [Example 306, m-(26S)-18-chloro-4-((1-((dimethylamino)methyl)cyclopropyl)methoxy)-9,32-difluoro-23,25,28-trioxa-1,3,5,14,15-pentaazahexacyclo[24.4.1.1~6,10~.0~2,7~.0~11,19~.0~12,16~]dotriaconta-2,4,6,8,10(32),11,13,16,18-nonaen-24-one]
7.21	7.38			O=C1OCCCCc2c(Cl)cc3[nH]ncc3c2-c2ncc3c(nc(OC[C@@]45CCCN4C[C@H](F)C5)nc3c2F)N2CCOC[C@H](C2)O1 [Example 324, (27S)-18-chloro-33-fluoro-4-(((2R,7aS)-2-fluorotetrahydro-1H-pyrrolo[1,2-a]pyrrol-7a(5H)-yl)methoxy)-24,26,29-trioxa-1,3,5,9,14,15-hexaazahexacyclo[25.4.1.1~6,10~.0~2,7~.0~11,19~.0~12,16~]tritriaconta-2,4,6,8,10(33),11,13,16,18-nonaen-25-one]
5.61	6.10			CN1CCC[C@H]1COc1nc2c3cnc(c(F)c3n1)-c1c(c(Cl)cc3[nH]ncc13)CCCOC(=O)O[C@@]1(CF)COCCN2C1 [Example 337, (26R)-18-chloro-32-fluoro-26-(fluoromethyl)-4-(((2S)-1-methyl-2-pyrrolidinyl)methoxy)-23,25,28-trioxa-1,3,5,9,14,15-hexaazahexacyclo[24.4.1.1~6,10~.0~2,7~.0~11,19~.0~12,16~]dotriaconta-2,4,6,8,10(32),11,13,16,18-nonaen-24-one]
6.99	7.70			Cn1ncc2cc(Cl)c3c(c21)-c1ncc2c(nc(OC[C@@]45CCCN4C[C@H](F)C5)nc2c1F)N1CCOC[C@H](C1)OC(=O)OCCC3 [Example 364, (26S)-18-chloro-32-fluoro-4-(((2R,7aS)-2-fluorotetrahydro-1H-pyrrolo[1,2-a]pyrrol-7a(5H)-yl)methoxy)-13-methyl-23,25,28-trioxa-1,3,5,9,13,14-hexaazahexacyclo[24.4.1.1~6,10~.0~2,7~.0~11,19~.0~12,16~]dotriaconta-2,4,6,8,10(32),11,14,16,18-nonaen-24-one]
6.03	6.20			C[C@@]12COCCN(C1)c1nc(OC[C@@]34CCCN3C[C@H](F)C4)nc3c(F)c(ncc13)-c1c3c(cc4[nH]ncc14)CC[C@@H]3CCOC(=O)O2 [Example 366, (16S,22R)-34-fluoro-8-(((2R,7aS)-2-fluorotetrahydro-1H-pyrrolo[1,2-a]pyrrol-7a(5H)-yl)methoxy)-16-methyl-14,17,19-trioxa-3,7,9,11,28,29-hexaazaheptacyclo[20.9.1.1~2,6~.1~11,16~.0~5,10~.0~25,32~.0~27,31~]tetratriaconta-1(31),2(34),3,5,7,9,25(32),26,29-nonaen-18-one]
		7.47	7.82	O[C@H]1C[C@@H]2CN(C1)c1nc(OC[C@@]34CCCN3C[C@H](F)C4)nc3c(F)c(ncc13)-c1c(c(Cl)cc3[nH]ncc13)CCCc1nc2no1 [Example 378]

Continued, compound first:

SMILES	pIC50 [1, 3]	pIC50 [2, 4]	pIC50 ([1]; TR-FRET, read-out: KRAS G12D Binding)	pIC50 ([2]; 2 hours compound pre-incubation, read-out: KRAS G12D Coupled Exchange)
CN1C(=O)COCC[C@@H]2CCc3cc4[nH]ncc4c(c32)-c2ncc3c(nc(OC[C@@]45CCCN4C[C@H](F)C5)nc3c2F)N2CCC[C@@H]1C2 [Example 279, (15R,22S)-34-fluoro-8-(((2R,7aS)-2-fluorotetrahydro-1H-pyrrolo[1,2-a]pyrrol-7a(5H)-yl)methoxy)-16-methyl-19-oxa-3,7,9,11,16,28,29-heptaazaheptacyclo[20.9.1.1~2,6~.1~11,15~.0~5,10~.0~25,32~.0~27,31~]tetratriaconta-1(31),2(34),3,5,7,9,25(32),26,29-nonaen-17-one]	6.48	7.15		
O=C1N[C@H]2C[C@@H](O)CN(C2)c2nc(OC[C@@]34CCCN3C[C@H](F)C4)nc3c(F)c(ncc23)-c2c(c(Cl)cc3[nH]ncc23)CCCO1 [Example 285, (17S,19R)-9-chloro-30-fluoro-24-(((2R,7aS)-2-fluorotetrahydro-1H-pyrrolo[1,2-a]pyrrol-7a(5H)-yl)methoxy)-19-hydroxy-14-oxa-5,6,16,21,23,25,29-heptaazahexacyclo[24.3.1.1~17,21~.0~2,10~.0~3,7~.0~22,27~]hentriaconta-1(30),2,4,7,9,22,24,26,28-nonaen-15-one]	5.72	6.21		
CN1C(=O)OCCCc2c(Cl)cc3[nH]ncc3c2-c2ncc3c(nc(OC[C@@]45CCCN4C[C@H](F)C5)nc3c2F)N2C[C@H](O)C[C@H]1C2 [Example 287, (17S,19R)-9-chloro-30-fluoro-24-(((2R,7aS)-2-fluorotetrahydro-1H-pyrrolo[1,2-a]pyrrol-7a(5H)-yl)methoxy)-19-hydroxy-16-methyl-14-oxa-5,6,16,21,23,25,29-heptaazahexacyclo[24.3.1.1~17,21~.0~2,10~.0~3,7~.0~22,27~]hentriaconta-1(30),2,4,7,9,22,24,26,28-nonaen-15-one]	5.91	6.42		
Cc1cc2[nH]ncc2c2c1CCCOC(=O)N[C@@]1(C)CCCCN(C1)c1nc(OC[C@@]34CCCN3C[C@H](F)C4)nc3c(F)c-2ncc13 [Example 293, (26S)-32-fluoro-4-(((2R,7aS)-2-fluorotetrahydro-1H-pyrrolo[1,2-a]pyrrol-7a(5H)-yl)methoxy)-18,26-dimethyl-23-oxa-1,3,5,9,14,15,25-heptaazahexacyclo[24.4.1.1~6,10~.0~2,7~.0~11,19~.0~12,16~]dotriaconta-2,4,6(32),7,9,11,13,16,18-nonaen-24-one]	4.30	4.79		
Fc1c2ncc3c(nc(OC[C@@]45CCCN4C[C@H](F)C5)nc13)N1CCOC[C@@H](C1)c1cnn(n1)CCCc1c(Cl)cc3[nH]ncc3c1-2 [Example 297, (1S)-10-chloro-33-fluoro-24-(((2R,7aS)-2-fluorotetrahydro-1H-pyrrolo[1,2-a]pyrrol-7a(5H)-yl)methoxy)-30-oxa-4,5,13,14,19,23,25,27,34-nonaazaheptacyclo[25.4.1.1~2,5~.1~18,22~.0~9,17~.0~12,16~.0~21,26~]tetratriaconta-2(34),3,9,11,14,16,18(33),19,21,23,25-undecaene]	5.09	5.22		
O=C1OCCCc2c(Cl)cc3[nH]ncc3c2-c2ncc3c(nc(OC[C@@]45CCCN4C[C@H](F)C5)nc3c2F)N2CCOC[C@@](CF)(C2)O1 [Example 310, (26R)-18-chloro-32-fluoro-26-(fluoromethyl)-4-(((2R,7aS)-2-fluorotetrahydro-1H-pyrrolo[1,2-a]pyrrol-7a(5H)-yl)methoxy)-23,25,28-trioxa-1,3,5,9,14,15-hexaazahexacyclo[24.4.1.1~6,10~.0~2,7~.0~11,19~.0~12,16~]dotriaconta-2,4,6(32),7,9,11,13,16,18-nonaen-24-one]	5.64	5.83		
O=C1OCCc2c(Cl)cc3[nH]ncc3c2-c2ncc3c(nc(OC[C@@]45CCCN4C[C@H](F)C5)nc3c2F)N2CCOC[C@]3(C2)C[C@@H](C3)O1 [Example 317, (1S,3S)-10-chloro-33-fluoro-24-(((2R,7aS)-2-fluorotetrahydro-1H-pyrrolo[1,2-a]pyrrol-7a(5H)-yl)methoxy)-4,6,30-trioxa-13,14,19,23,25,27-hexaazaheptacyclo[25.4.1.1~1,3~.1~18,22~.0~9,17~.0~12,16~.0~21,26~]tetratriaconta-9,11,14,16,18(33),19,21,23,25-nonaen-5-one]	7.30	7.46		
CN(C)CC1(COc2nc3c4cnc(c(F)c4n2)-c2c(c(Cl)cc4[nH]ncc24)CCCOC(=O)O[C@@]2(C)COCCN3C2)CC1 [Example 332, (26R)-18-chloro-4-((1-((dimethylamino)methyl)cyclopropyl)methoxy)-32-fluoro-26-methyl-23,25,28-trioxa-1,3,5,9,14,15-hexaazahexacyclo[24.4.1.1~6,10~.0~2,7~.0~11,19~.0~12,16~]dotriaconta-2,4,6,8,10(32),11,13,16,18-nonaen-24-one]	5.49	5.68		
O=C1OCC[C@H]2CCc3cc4[nH]ncc4c(c32)-c2ncc3c(nc(OC[C@@]45CCCN4C[C@H](F)C5)nc3c2F)N2CCOC[C@H](C2)O1 [Example 368, (16S,22R)-34-fluoro-8-(((2R,7aS)-2-fluorotetrahydro-1H-pyrrolo[1,2-a]pyrrol-7a(5H)-yl)methoxy)-14,17,19-trioxa-3,7,9,11,28,29-hexaazaheptacyclo[20.9.1.1~2,6~.1~11,16~.0~5,10~.0~25,32~.0~27,31~]tetratriaconta-1(31),2(34),3,5,7,9,25(32),26,29-nonaen-18-one]	5.91	6.11		
